Laboratory results taken from ChEMBL document CHEMBL1201862, “PubChem BioAssay data set” (2004).
Calls of active or inactive are those of the source.

How the values were obtained:
H9c2 = assay: cells; format: functional, cell-based; details: Rattus norvegicus, H9c2, Myocardium;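 note: confirmatory concentration-response retest of ultra-high-throughput screening hits for modulation of myocardial damage; cell death induced by hydrogen peroxide oxidative stress; compound pretreatment for 60 min then peroxide exposure for 2 h; potency is for protecting the cells against peroxide damage rather than for killing them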
[1] = Luminescence Cell-Based Dose Retest to Confirm Inhibitors of Cancer Stem Cells. [Related pubchem assays (depositor defined):AID2717, AID2721]; format: functional; details: Homo sapiens
Cytochrome P450 2D6 = Cytochrome P450 2D6 (Homo sapiens, UniProt P10635);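 note: CYP2D6 member of a cytochrome P450 panel assay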
Sequence of Cytochrome P450 2D6 (P10635 whole entry): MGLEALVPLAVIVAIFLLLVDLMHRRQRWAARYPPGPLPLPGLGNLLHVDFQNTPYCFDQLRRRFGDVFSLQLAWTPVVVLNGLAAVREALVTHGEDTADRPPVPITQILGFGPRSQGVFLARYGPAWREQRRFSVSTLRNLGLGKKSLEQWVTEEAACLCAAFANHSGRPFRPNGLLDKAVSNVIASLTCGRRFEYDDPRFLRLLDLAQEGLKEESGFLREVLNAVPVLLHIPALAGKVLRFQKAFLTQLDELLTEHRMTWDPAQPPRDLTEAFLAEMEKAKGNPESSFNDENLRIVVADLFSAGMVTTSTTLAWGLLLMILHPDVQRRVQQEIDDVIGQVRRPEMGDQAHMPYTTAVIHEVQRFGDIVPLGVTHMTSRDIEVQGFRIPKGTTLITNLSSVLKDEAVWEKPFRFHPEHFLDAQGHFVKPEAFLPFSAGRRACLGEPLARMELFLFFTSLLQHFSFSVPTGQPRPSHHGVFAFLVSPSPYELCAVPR

Cytochrome P450 2C9 = Cytochrome P450 2C9 (Homo sapiens, UniProt P11712)
Sequence of Cytochrome P450 2C9 (P11712 whole entry): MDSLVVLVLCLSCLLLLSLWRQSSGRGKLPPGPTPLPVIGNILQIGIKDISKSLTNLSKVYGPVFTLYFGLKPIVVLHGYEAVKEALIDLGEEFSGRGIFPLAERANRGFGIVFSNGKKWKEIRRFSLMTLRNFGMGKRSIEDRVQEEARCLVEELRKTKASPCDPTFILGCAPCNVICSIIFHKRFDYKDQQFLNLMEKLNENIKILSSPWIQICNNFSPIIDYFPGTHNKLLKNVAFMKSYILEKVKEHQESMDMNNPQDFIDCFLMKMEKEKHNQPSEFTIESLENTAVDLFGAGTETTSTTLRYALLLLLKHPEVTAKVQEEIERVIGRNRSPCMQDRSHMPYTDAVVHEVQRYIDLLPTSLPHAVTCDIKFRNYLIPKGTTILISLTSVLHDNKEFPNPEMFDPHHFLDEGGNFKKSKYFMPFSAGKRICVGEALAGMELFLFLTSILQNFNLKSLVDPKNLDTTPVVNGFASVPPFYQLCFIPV

HEK293 = assay: EBV LMP1 TES2 canonical NF-kB signalling blockers – cell-based, HEK293, luciferase, cherry-pick, dose response (AID 588343); format: functional; details: Homo sapiens
[2] = Trypanosoma cruzi growth suppression in host cells – NIH3T3 host cells, beta-gal luminescence, confirmation (AID 2044); format: functional, cell-based;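 note: intracellular parasites grown in NIH/3T3 mouse fibroblasts as host cells; luminescent beta-galactosidase reporter signal from transgenic T. cruzi replicating inside host cells; inhibitors lower the luminescence signal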
[3] = NIH3T3 cell viability loss – ATP luminescence, mouse fibroblasts, counter-screen, dose response (AID 2010); format: functional, cell-based;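 note: cells exposed to compound for about 90 hours before reading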
INS1 = assay: INS-1E survival protection against cytokine death – cell-based, luminescence, retest, dose response (AID 449756); format: functional; details: Rattus norvegicus;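 note: cell death triggered by IL-1 beta plus TNF-alpha plus IFN-gamma mixture; protective hits raise ATP signal compared with cytokine alone wells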
Vero = assay: cells; format: functional; details: Chlorocebus sabaeus
Cytochrome P450 2C19 = Cytochrome P450 2C19 (Homo sapiens, UniProt P33261); assay: Cytochrome panel assay with activity outcomes. Panel member name: p450-cyp2c19 Compounds with AC50 equal or less than 10 uM are considered active; format: functional
Sequence of Cytochrome P450 2C19 (P33261 whole entry): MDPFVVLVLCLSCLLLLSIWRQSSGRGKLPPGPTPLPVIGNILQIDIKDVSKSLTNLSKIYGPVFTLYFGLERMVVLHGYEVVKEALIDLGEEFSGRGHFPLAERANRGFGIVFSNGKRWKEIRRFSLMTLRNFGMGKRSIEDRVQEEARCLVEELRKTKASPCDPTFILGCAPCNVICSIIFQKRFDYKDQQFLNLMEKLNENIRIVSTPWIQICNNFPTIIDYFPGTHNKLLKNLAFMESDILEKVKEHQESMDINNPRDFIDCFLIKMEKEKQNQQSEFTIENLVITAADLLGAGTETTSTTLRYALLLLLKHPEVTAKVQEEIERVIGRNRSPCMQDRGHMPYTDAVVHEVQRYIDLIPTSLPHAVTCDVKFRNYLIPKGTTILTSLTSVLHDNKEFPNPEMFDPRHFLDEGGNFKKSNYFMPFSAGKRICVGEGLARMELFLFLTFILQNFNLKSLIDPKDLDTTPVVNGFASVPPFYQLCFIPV

Cytochrome P450 1A2 = molecular target: T1, Cytochrome P450 1A2 (Homo sapiens, UniProt P05177);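 note: PubChem cytochrome P450 panel assay, CYP1A2 panel member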
T1 sequence (P05177 whole entry): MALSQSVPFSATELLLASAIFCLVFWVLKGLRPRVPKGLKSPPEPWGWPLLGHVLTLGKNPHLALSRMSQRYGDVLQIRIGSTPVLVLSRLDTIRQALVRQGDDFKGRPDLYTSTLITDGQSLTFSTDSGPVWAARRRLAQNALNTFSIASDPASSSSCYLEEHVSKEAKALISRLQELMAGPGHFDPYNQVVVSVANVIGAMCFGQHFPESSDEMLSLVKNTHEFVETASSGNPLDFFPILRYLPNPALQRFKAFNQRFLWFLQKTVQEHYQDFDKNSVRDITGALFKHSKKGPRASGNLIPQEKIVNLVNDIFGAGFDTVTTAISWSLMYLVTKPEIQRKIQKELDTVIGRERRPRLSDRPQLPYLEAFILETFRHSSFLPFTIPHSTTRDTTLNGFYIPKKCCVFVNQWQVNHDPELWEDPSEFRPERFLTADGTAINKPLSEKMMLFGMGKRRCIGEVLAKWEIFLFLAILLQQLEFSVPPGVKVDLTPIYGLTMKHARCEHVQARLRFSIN

Cc1cccc(NC(=O)c2[nH]cnc2C(=O)NCCCNC(=O)c2nc[nH]c2C(=O)Nc2cccc(C)c2)c1
IC50 (H9c2): 26.2 µM (active)
AC50 [1]: 10.6 µM (active)

COc1ccc(N(C(=O)c2cccc([N+](=O)[O-])c2)S(=O)(=O)c2cccs2)cc1
IC50 (H9c2): > 79 µM (inactive)

Cn1c(SCC(=O)N2CCN(S(=O)(=O)c3ccccc3)CC2)nc2ccccc21
AC50 (Cytochrome P450 2D6): 14.1 µM (inconclusive)
AC50 (Cytochrome P450 2C9): inconclusive

Cc1nc2c(-c3ccc(Cl)cc3)c(C)nn2c(O)c1Cc1ccccc1
AC50 (HEK293): 9.26 µM (active)
EC50 [2]: 0.938 µM (active)
EC50 [3]: 2.97 µM (active)
AC50 (INS1): 2.5 µM (active)

O=C1C2C3C=CC(CC3)C2C(=O)N1c1cccc(Br)c1 (stereo unspecified)
IC50 (H9c2): > 79 µM (inactive)

COc1cc2ccnc(C=O)c2cc1OC
IC50 (H9c2): 14.5 µM (active)
CC50 (Vero): > 25 µM (active)

O=C(Nc1ncc(Cc2cccc(Cl)c2)s1)C1=NCCN1
AC50 (Cytochrome P450 2C9): inconclusive
AC50 (Cytochrome P450 2C19): inconclusive
AC50 (Cytochrome P450 1A2): 31.6 µM (inconclusive)

O=C(CSC1=NNC(c2ccccn2)S1)Nc1cccc(Cl)c1 (stereo unspecified)
IC50 (H9c2): > 79 µM (inactive)
